The source made the active and inactive calls. The rule behind the calls is not given here.
Experiments:
Lewis lung carcinoma [1] = test: Antitumor activity against mouse LLC allografted in ip dosed C57BL/6 mouse assessed as reduction in tumor volume measured after 7 days; format: functional, organism-based; settings: dose mg/kg 100-400, time 7.0 day
[2] = Toxicity in C57BL/6 mouse assessed as effect on body weight at 100 to 400 mg/kg, ip measured on day 3; format: organism-based; settings: in vivo, 72 h, dose 100-400 mg/kg, time 3 day
[3] = Toxicity in C57BL/6 mouse assessed as increase in body weight at 100 to 200 mg/kg, ip measured up to 15 days; format: organism-based; settings: in vivo, 360 h, dose 100-200 mg/kg, time <=15 day
[4] = Toxicity in C57BL/6 mouse assessed as increase in body weight at 400 mg/kg, ip measured up to 15 days; format: organism-based; settings: in vivo, 360 h, time <=15 day
Lewis lung carcinoma [5] = test: Antitumor activity against mouse LLC allografted in C57BL/6 mouse assessed as inhibition of tumor growth at 400 mg/kg, ip measured after 7 days; format: functional, organism-based; settings: time 7.0 day
Lewis lung carcinoma [6] = test: Antitumor activity against mouse LLC allografted in ip dosed C57BL/6 mouse assessed as reduction in tumor growth administered once every other day; format: functional, organism-based; settings: dose mg/kg 100-400
Lewis lung carcinoma [7] = test: Antitumor activity against mouse LLC allografted in C57BL/6 mouse assessed as reduction in tumor weight at 400 mg/kg, ip administered once every other day; format: functional, organism-based
[8] = Antitumor activity against mouse LLC allografted in C57BL/6 mouse assessed as tumor weight at 100 mg/kg, ip administered once every other day (reference value: 2.74 +/- 0.29 g); format: functional, Lewis lung carcinoma
[9] = Antitumor activity against mouse LLC allografted in C57BL/6 mouse assessed as tumor weight at 200 mg/kg, ip administered once every other day (reference value: 2.74 +/- 0.29 g); format: functional, Lewis lung carcinoma
[10] = Antitumor activity against mouse LLC allografted in C57BL/6 mouse assessed as tumor weight at 400 mg/kg, ip administered once every other day (reference value: 2.74 +/- 0.29 g); format: functional, Lewis lung carcinoma
[11] = Antitumor activity against mouse LLC allografted in C57BL/6 mouse assessed as tumor growth inhibition at 100 mg/kg, ip administered once every other day relative to control; format: functional; settings: Lewis lung carcinoma, read-out: TGI
[12] = Antitumor activity against mouse LLC allografted in C57BL/6 mouse assessed as tumor growth inhibition at 200 mg/kg, ip administered once every other day relative to control; format: functional; settings: Lewis lung carcinoma, read-out: TGI
[13] = Antitumor activity against mouse LLC allografted in C57BL/6 mouse assessed as tumor growth inhibition at 400 mg/kg, ip administered once every other day relative to control; format: functional; settings: Lewis lung carcinoma, read-out: TGI
Lewis lung carcinoma [14] = test: Antitumor activity against mouse LLC allografted in ip dosed C57BL/6 mouse assessed as induction of apoptosis by measuring reduction in number of tumor cells administered every other day by H and E staining based analysis; format: functional, organism-based; settings: dose mg/kg 100-400
Lewis lung carcinoma [15] = test: Antitumor activity against mouse LLC allografted in ip dosed C57BL/6 mouse assessed as induction of apoptosis by measuring nuclear contraction administered every other day by H and E staining based analysis; format: functional, organism-based; settings: dose mg/kg 100-400
Lewis lung carcinoma [16] = test: Antitumor activity against mouse LLC allografted in ip dosed C57BL/6 mouse assessed as induction of apoptosis by measuring increase in cell debris content in tumor administered every other day by H and E staining based analysis; format: functional, organism-based; settings: dose mg/kg 100-400
Lewis lung carcinoma [17] = test: Antitumor activity against mouse LLC allografted in ip dosed C57BL/6 mouse assessed as induction of apoptosis by measuring increase in apoptotic bodies in tumor administered every other day by H and E staining based analysis; format: functional, organism-based; settings: dose mg/kg 100-400
Lewis lung carcinoma [18] = test: Antitumor activity against mouse LLC allografted in ip dosed C57BL/6 mouse assessed as increase in bax expression administered once every other day by Western blot analysis; format: functional, organism-based; settings: dose mg/kg 100-400
Lewis lung carcinoma [19] = test: Antitumor activity against mouse LLC allografted in ip dosed C57BL/6 mouse assessed as reduction in bcl2 expression administered once every other day by Western blot analysis; format: functional, organism-based; settings: dose mg/kg 100-400
[20] = Antitumor activity against mouse LLC allografted in C57BL/6 mouse assessed as bax/bcl2 ratio at 100 mg/kg, ip administered once every other day by Western blot analysis; format: functional, Lewis lung carcinoma
[21] = Antitumor activity against mouse LLC allografted in C57BL/6 mouse assessed as bax/bcl2 ratio at 200 mg/kg, ip administered once every other day by Western blot analysis; format: functional, Lewis lung carcinoma
[22] = Antitumor activity against mouse LLC allografted in C57BL/6 mouse assessed as bax/bcl2 ratio at 400 mg/kg, ip administered once every other day by Western blot analysis; format: functional, Lewis lung carcinoma
Lewis lung carcinoma [23] = test: Antitumor activity against mouse LLC allografted in C57BL/6 mouse assessed as effect on Cyt C protein expression in tumor at 100 to 200 mg/kg, ip administered once every other day by Western blot analysis; format: functional, organism-based; settings: dose mg/kg 100-200
Lewis lung carcinoma [24] = test: Antitumor activity against mouse LLC allografted in C57BL/6 mouse assessed as Cyt C protein expression level in tumor at 400 mg/kg, ip administered once every other day by Western blot analysis relative to control; format: functional, organism-based
[25] = Upregulation of p53 protein expression in […] LLC allografted C57BL/6 mouse at 400 mg/kg, ip administered once every other day by Western blot analysis relative to control; format: functional
[26] = In vivo activation of p53 in mouse LLC allografted C57BL/6 mouse assessed as reduction in Akt protein expression in tumor at 200 mg/kg, ip administered once every other day by Western blot analysis relative to control; format: functional
[27] = In vivo activation of p53 in mouse LLC allografted C57BL/6 mouse assessed as reduction in 5-lox protein expression in tumor at 400 mg/kg, ip administered once every other day by Western blot analysis relative to control; format: functional
[28] = target: E3 ubiquitin-protein ligase Mdm2 (Mus musculus) (UniProt P23804); test: In vivo activation of p53 in mouse LLC allografted C57BL/6 mouse assessed as reduction in MDM2 protein expression in tumor at 100 to 400 mg/kg, ip administered once every other day by Western blot analysis; format: functional, organism-based; settings: dose mg/kg 100-400
Mus musculus [29] = test: Down regulation of VEGF protein expression in mouse LLC allografted C57BL/6 mouse at 100 mg/kg, ip by Western blot analysis; format: functional, organism-based
Mus musculus [30] = test: Down regulation of VEGF protein expression in mouse LLC allografted C57BL/6 mouse at 200 to 400 mg/kg, ip by Western blot analysis; format: functional, organism-based; settings: dose mg/kg 200-400
Mus musculus [31] = test: Down regulation of ICAM1 protein expression in mouse LLC allografted C57BL/6 mouse at 100 mg/kg, ip by Western blot analysis; format: functional, organism-based
Mus musculus [32] = test: Down regulation of MMP2 protein expression in mouse LLC allografted C57BL/6 mouse at 200 mg/kg, ip by Western blot analysis; format: functional, organism-based

Sequence of E3 ubiquitin-protein ligase Mdm2 (Mus musculus) (P23804 whole entry): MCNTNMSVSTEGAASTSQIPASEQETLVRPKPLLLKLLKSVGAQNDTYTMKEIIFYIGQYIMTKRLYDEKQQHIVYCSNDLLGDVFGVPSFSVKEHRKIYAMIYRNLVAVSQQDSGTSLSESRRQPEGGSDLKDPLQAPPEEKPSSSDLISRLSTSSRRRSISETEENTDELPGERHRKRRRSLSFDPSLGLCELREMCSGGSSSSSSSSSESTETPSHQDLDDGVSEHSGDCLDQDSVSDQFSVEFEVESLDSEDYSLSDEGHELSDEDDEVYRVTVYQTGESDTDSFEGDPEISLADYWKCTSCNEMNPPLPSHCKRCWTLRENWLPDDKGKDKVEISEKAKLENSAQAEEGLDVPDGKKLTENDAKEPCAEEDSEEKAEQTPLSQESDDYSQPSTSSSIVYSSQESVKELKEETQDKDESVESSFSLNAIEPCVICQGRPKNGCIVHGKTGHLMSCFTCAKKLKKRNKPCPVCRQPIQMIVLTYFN

**Q.** For `CN1C(=O)C2(C(C#N)=C(N)Oc3cc4oc(-c5ccccc5)cc(=O)c4c(O)c32)c2cc(Br)ccc21` (configuration not stated), which Activity (Lewis lung carcinoma [1]) is on record?
**A.** Dose-dependent effect

**Q.** And the Activity [2]?
**A.** Non-Toxic

**Q.** And the Activity [3]?
**A.** Toxic

**Q.** What about the Activity [4] of the same compound?
**A.** Non-Toxic

**Q.** And the TGI (Lewis lung carcinoma [5])?
**A.** Active

**Q.** What about the Activity (Lewis lung carcinoma [6]) of the same compound?
**A.** Dose-dependent effect

**Q.** What about the Activity (Lewis lung carcinoma [7]) of the same compound?
**A.** Active

**Q.** What about the Activity [8] of the same compound?
**A.** 2.51 g

**Q.** What about the Activity [9] of the same compound?
**A.** 2.15 g

**Q.** And the Activity [10]?
**A.** 1.18 g

**Q.** What about the inhibition in vivo at 100 mg/kg [11] of the same compound?
**A.** 7.45%

**Q.** What about the inhibition in vivo at 200 mg/kg [12] of the same compound?
**A.** 20%

**Q.** What about the inhibition in vivo at 400 mg/kg [13] of the same compound?
**A.** 56.9%

**Q.** What about the Activity (Lewis lung carcinoma [14]) of the same compound?
**A.** Dose-dependent effect

**Q.** And the Activity (Lewis lung carcinoma [15])?
**A.** Dose-dependent effect

**Q.** And the Activity (Lewis lung carcinoma [16])?
**A.** Dose-dependent effect

**Q.** What about the Activity (Lewis lung carcinoma [17]) of the same compound?
**A.** Dose-dependent effect

**Q.** What about the Activity (Lewis lung carcinoma [18]) of the same compound?
**A.** Dose-dependent effect

**Q.** And the Activity (Lewis lung carcinoma [19])?
**A.** Dose-dependent effect

**Q.** What about the Ratio [20] of the same compound?
**A.** 1.29

**Q.** And the Ratio [21]?
**A.** 2.23

**Q.** And the Ratio [22]?
**A.** 4.13

**Q.** What about the Activity (Lewis lung carcinoma [23]) of the same compound?
**A.** inactive

**Q.** What about the Activity (Lewis lung carcinoma [24]) of the same compound?
**A.** Active

**Q.** And the “fold change (FC)” value [25]?
**A.** 2.86

**Q.** And the “fold change (FC)” value [26]?
**A.** 0.59

**Q.** What about the “fold change (FC)” value [27] of the same compound?
**A.** 0.4

**Q.** And the Activity [28]?
**A.** Active

**Q.** What about the Activity (Mus musculus [29]) of the same compound?
**A.** inactive

**Q.** What about the Activity (Mus musculus [30]) of the same compound?
**A.** Active

**Q.** And the Activity (Mus musculus [31])?
**A.** Active

**Q.** And the Activity (Mus musculus [32])?
**A.** Active

— ChEMBL document CHEMBL4725321, “Study on antitumor activities of the chrysin-chromene-spirooxindole on Lewis lung carcinoma C57BL/6 mice in vivo” (Bioorg Med Chem Lett, 2020)
